Measurements: the supplement of paper PMC11061612

Experiments:
Assay in all cases: Bliss excess, mean over the matrix (fraction); higher = more synergy
[1] = test system: DMS-273 (Small Cell Lung Carcinoma)
Outline: (§1)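 After 24 hours at 37°C and 5% CO2 in 1536-well plates, cells in DMEM/F12 or RPMI plus 10% FBS received two-drug dose matrices for 72 hours. Viability came from CellTiter-Glo 2.0 luminescence and was scaled as inhibition, anchored at 0 by vehicle wells and at 1 by blank wells. Combination Emax is taken as the second-highest inhibition in the matrix, and Bliss excess as the observed combination effect less EA + EB − EA·EB, with EA and EB the single-agent effects.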

[2] = test system: SUIT-2 (Pancreatic Carcinoma)
Outline: as §1

NCI-H2595 (Mesothelioma) = test system: NCI-H2595 (Mesothelioma)
Outline: as §1

ES7 (Ewing's Sarcoma) = test system: ES7 (Ewing's Sarcoma)
Outline: as §1

[3] = test system: 697 (B-Lymphoblastic Leukemia)
Outline: as §1

NCI-H2369 (Mesothelioma) = test system: NCI-H2369 (Mesothelioma)
Outline: as §1

[4] = test system: CFPAC-1 (Pancreatic Carcinoma)
Outline: as §1

[5] = test system: C3A (Hepatocellular Carcinoma)
Outline: as §1

[6] = test system: SW756 (Cervical Carcinoma)
Outline: as §1

[7] = test system: OCI-AML2 (Acute Myeloid Leukemia)
Outline: as §1

[8] = test system: KARPAS-1106P (B-Cell Non-Hodgkin's Lymphoma)
Outline: as §1

[9] = test system: SNU-C5 (Colorectal Carcinoma)
Outline: as §1

[10] = test system: KM-H2 (Hodgkin's Lymphoma)
Outline: as §1

CAL-78 (Chondrosarcoma) = test system: CAL-78 (Chondrosarcoma)
Outline: as §1

SK-N-FI (Neuroblastoma) = test system: SK-N-FI (Neuroblastoma)
Outline: as §1

[11] = test system: MDA-MB-157 (Breast Carcinoma)
Outline: as §1

[12] = test system: TGBC24TKB (Biliary Tract Carcinoma)
Outline: as §1

SN12C (Kidney Carcinoma) = test system: SN12C (Kidney Carcinoma)
Outline: as §1

[13] = test system: TE-5 (Esophageal Squamous Cell Carcinoma)
Outline: as §1

DSH1 (Bladder Carcinoma) = test system: DSH1 (Bladder Carcinoma)
Outline: as §1

Structure (SMILES) | Bliss excess [1] | Bliss excess [2] | Bliss excess (NCI-H2595 (Mesothelioma)) | Bliss excess (ES7 (Ewing's Sarcoma)) | Bliss excess [3] | Bliss excess (NCI-H2369 (Mesothelioma)) | Bliss excess [4] | Bliss excess [5] | Bliss excess [6] | Bliss excess [7] | Bliss excess [8] | Bliss excess [9] | Bliss excess [10] | Bliss excess (CAL-78 (Chondrosarcoma)) | Bliss excess (SK-N-FI (Neuroblastoma)) | Bliss excess [11] | Bliss excess [12] | Bliss excess (SN12C (Kidney Carcinoma)) | Bliss excess [13] | Bliss excess (DSH1 (Bladder Carcinoma))
COc1cccc(OCCCN)c1-c1cc(Nc2cnc(C#N)cn2)n[nH]1 [Prexasertib] + C=CCn1c(=O)c2cnc(Nc3ccc(N4CCN(C)CC4)cc3)nc2n1-c1cccc(C(C)(C)O)n1 [AZD1775] (first compound max 1 µM, partner max 1 µM) | 0.0795 | 0.036 | 0.0383 | 0.0597 | 0.0316 | -0.0074 | -0.0145 | 0.0463 | 0.0163 | 0.0655 | -0.0047 | 0.0153 | 0.077 | -0.0422 | 0.0466 | 0.0628 | 0.0429 | 0.0613 | -0.0245 | 0.112
CC1(C)CCC(CN2CCN(c3ccc(C(=O)NS(=O)(=O)c4ccc(NCC5CCOCC5)c([N+](=O)[O-])c4)c(Oc4cnc5[nH]ccc5c4)c3)CC2)=C(c2ccc(Cl)cc2)C1 [Venetoclax] + CN(C)CCCOc1ccc(-c2ccc3ncc4c(c3c2)n(C2CCOCC2)c(=O)n4C)cn1 [AZD0156] (first compound max 1 µM, 7x7, partner max 1 µM) | 0.0156 | 0.0031 | 0.0103 | 0.0317 | -0.0012 | -0.0298 | 0.0025 | -0.0414 | -0.0215 | -0.0267 | 0.0261 | -0.0123 | -0.0012 | -0.0043 | 0 | -0.0087 | 0.0307 | -0.0307 | -0.0248 | -0.0305
Cn1cnc2c(F)c(Nc3ccc(Br)cc3Cl)c(C(=O)NOCCO)cc21 [Selumetinib] + C=CCn1c(=O)c2cnc(Nc3ccc(N4CCN(C)CC4)cc3)nc2n1-c1cccc(C(C)(C)O)n1 [AZD1775] (first compound max 10 µM, partner max 1 µM) | 0.0035 | -0.0417 | -0.0443 | -0.0548 | -0.0131 | -0.0624 | -0.0439 | -0.022 | -0.0882 | 0.0274 | -0.0358 | 0.0241 | -0.0685 | -0.07 | -0.0433 | 0.0096 | -0.0027 | -0.0228 | -0.0514 | -0.0355
CC1(C)CCC(CN2CCN(c3ccc(C(=O)NS(=O)(=O)c4ccc(NCC5CCOCC5)c([N+](=O)[O-])c4)c(Oc4cnc5[nH]ccc5c4)c3)CC2)=C(c2ccc(Cl)cc2)C1 [Venetoclax] + C[C@@H](Nc1cc(F)cc(F)c1)c1cc(C(=O)N(C)C)cc2c(=O)cc(N3CCOCC3)oc12 [AZD8186] (first compound max 1 µM, 7x7, partner max 3 µM) | 0.0274 | -0.0481 | -0.0111 | 0.135 | -0.0458 | -0.0299 | 0.0034 | -0.0803 | -0.0452 | -0.0033 | 0.0046 | -0.0308 | -0.0151 | -0.0152 | -0.0178 | 0.0095 | -0.0202 | -0.0777 | -0.0327 | 0.002
Cc1cc2ncnn2cc1Nc1ncc2c(n1)n(C1CCOCC1)c(=O)n2C [AZD7648] + C[C@@H]1COCCN1C2=NC(=NC(=C2)C3(CC3)[S@](=N)(=O)C)C4=C5C=CNC5=NC=C4 [AZD6738] (first compound max 10 µM, 7x7, partner max 10 µM) | 0.0094 | -0.0306 | -0.0059 | 0.074 | -0.009 | 0.008 | -0.0108 | 0.0722 | 0.0048 | 0.0045 | 0.0183 | 0.0455 | 0.0227 | 0.0344 | -0.005 | -0.0029 | 0.0117 | 0.0264 | -0.0093 | -0.0234
COc1nnc2ccc(N3CCC(c4ccc(OCCN5CCN(C)C(=O)[C@H]5C)cc4)CC3)nn12 [AZD5153] + C[C@@H]1COCCN1C2=NC(=NC(=C2)C3(CC3)[S@](=N)(=O)C)C4=C5C=CNC5=NC=C4 [AZD6738] (first compound max 1 µM, 7x7, partner max 10 µM) | 0.0044 | 0.0468 | 0.0346 | -0.0245 | -0.0106 | 0.0409 | 0.015 | 0.0348 | 0.0204 | -0.0143 | -0.0455 | 0.0359 | -0.008 | 0.0093 | 0.0549 | -0.0138 | 0.0292 | -0.0091 | -0.0316 | 0.0321
CCN(CCO)CCCOc1ccc2c(Nc3cc(CC(=O)Nc4cccc(F)c4)[nH]n3)ncnc2c1 [AZD2811] + C[C@@H]1COCCN1C2=NC(=NC(=C2)C3(CC3)[S@](=N)(=O)C)C4=C5C=CNC5=NC=C4 [AZD6738] (first compound max 1 µM, 7x7, partner max 10 µM) | -0.0332 | -0.0307 | -0.0491 | -0.0482 | 0.0013 | -0.0621 | -0.0932 | -0.0117 | -0.0095 | -0.0145 | -0.0713 | -0.0418 | -0.0249 | -0.0799 | -0.0625 | 0.0031 | -0.0407 | -0.0641 | -0.0582 | 0.02
Cc1cc2ncnn2cc1Nc1ncc2c(n1)n(C1CCOCC1)c(=O)n2C [AZD7648] + CN(C)CCCOc1ccc(-c2ccc3ncc4c(c3c2)n(C2CCOCC2)c(=O)n4C)cn1 [AZD0156] (first compound max 10 µM, 7x7, partner max 1 µM) | 0.05 | -0.0125 | -0.0373 | 0.0271 | -0.0136 | 0.0327 | 0.0064 | -0.032 | 0.0076 | -0.022 | 0.0083 | 0.0202 | 0.0208 | -0.0091 | 0.0029 | 0.0406 | 0.009 | -0.0388 | -0.0362 | 0.0171
Cc1c2c(nn1C)CSCc1cc(n(C)n1)CSc1cc(c3ccccc3c1)OCCCc1c(C(=O)O)n(C)c3c-2c(Cl)ccc13 [AZD5991] + Cn1cnc2c(F)c(Nc3ccc(Br)cc3Cl)c(C(=O)NOCCO)cc21 [Selumetinib] (first compound max 1 µM, 7x7, partner max 3 µM) | -0.0137 | -0.0135 | 0.0101 | 0.0375 | -0.0462 | 0.0081 | 0.0044 | -0.0476 | -0.0058 | 0.0107 | 0.0497 | -0.0107 | 0.0029 | -0.0288 | -0.0042 | -0.0098 | 0.0488 | -0.0425 | -0.0146 | -0.0881
Cn1cnc2c(F)c(Nc3ccc(Br)cc3Cl)c(C(=O)NOCCO)cc21 [Selumetinib] + C[C@@H]1COCCN1C2=NC(=NC(=C2)C3(CC3)[S@](=N)(=O)C)C4=C5C=CNC5=NC=C4 [AZD6738] (first compound max 10 µM, 7x7, partner max 10 µM) | -0.0676 | 0.0298 | -0.0326 | -0.0585 | 0.0344 | -0.0338 | -0.0112 | 0.0471 | 0.0323 | 0.0141 | -0.0007 | 0.0751 | -0.0148 | -0.0911 | 0.0325 | -0.0203 | 0.0704 | -0.0169 | -0.0388 | -0.0734
C=CCn1c(=O)c2cnc(Nc3ccc(N4CCN(C)CC4)cc3)nc2n1-c1cccc(C(C)(C)O)n1 [AZD1775] + C[C@@H]1COCCN1C2=NC(=NC(=C2)C3(CC3)[S@](=N)(=O)C)C4=C5C=CNC5=NC=C4 [AZD6738] (first compound max 1 µM, partner max 10 µM) | 0.0645 | -0.0287 | -0.0206 | 0.0753 | 0.047 | -0.0395 | -0.0369 | -0.0104 | -0.0278 | 0.0349 | 0.0072 | -0.0173 | 0.0647 | 0.0171 | -0.0346 | 0.0217 | -0.0018 | -0.0359 | -0.0843 | 0.0201
COc1cccc2c1C(=O)c1c(O)c3c(c(O)c1C2=O)C[C@@](O)(C(=O)CO)C[C@@H]3O[C@H]1C[C@H](N)[C@H](O)[C@H](C)O1 [Doxorubicin] + Cc1cc2ncnn2cc1Nc1ncc2c(n1)n(C1CCOCC1)c(=O)n2C [AZD7648] (first compound max 1 µM, 7x7, partner max 10 µM) | 0.0727 | 0.0432 | 0.0084 | 0.0997 | 0.101 | 0.029 | 0.0253 | -0.0065 | 0.0541 | 0.0125 | 0.0713 | 0.0378 | 0.116 | 0.0132 | -0.0158 | 0.0033 | -0.002 | 0.0191 | -0.0229 | 0.0268
CC1(C)CCC(CN2CCN(c3ccc(C(=O)NS(=O)(=O)c4ccc(NCC5CCOCC5)c([N+](=O)[O-])c4)c(Oc4cnc5[nH]ccc5c4)c3)CC2)=C(c2ccc(Cl)cc2)C1 [Venetoclax] + Cc1cc2ncnn2cc1Nc1ncc2c(n1)n(C1CCOCC1)c(=O)n2C [AZD7648] (first compound max 1 µM, 7x7, partner max 10 µM) | -0.0147 | -0.0271 | -0.0185 | -0.0735 | -0.0154 | -0.0273 | -0.0359 | -0.0588 | 0.0031 | 0.0273 | -0.0672 | -0.0233 | -0.0322 | 0.0236 | 0.0047 | -0.0154 | 0.0423 | -0.0471 | -0.0382 | -0.027
CC1(C)CCC(CN2CCN(c3ccc(C(=O)NS(=O)(=O)c4ccc(NCC5CCOCC5)c([N+](=O)[O-])c4)c(Oc4cnc5[nH]ccc5c4)c3)CC2)=C(c2ccc(Cl)cc2)C1 [Venetoclax] + Cn1cnc2c(F)c(Nc3ccc(Br)cc3Cl)c(C(=O)NOCCO)cc21 [Selumetinib] (first compound max 1 µM, 7x7, partner max 3 µM) | -0.0184 | -0.0942 | -0.047 | -0.0127 | -0.0001 | -0.0308 | -0.0142 | -0.017 | -0.0537 | 0.014 | -0.0009 | -0.0248 | -0.0221 | -0.0619 | 0.0374 | 0.0208 | -0.0103 | -0.0489 | -0.0575 | 0.0225
